Data on nine compounds can be found in patent US5578622A, “Isothiazole derivatives and their uses” (Asamura Patent Office, priority 1994, dated 1996).

Experiment [1] has as its system Pseudoperonospora cubensis. Nature of the experiment: Test for controlling effect on downy mildew of cucumber. The experiment is classed as in vivo. The note with it: 168 h, 200 ppm spray, one day before inoculation, cucumber 2-leaf stage, read-out: Controlling effect (control of disease), Downy mildew of cucumber. Summed up: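 200 ppm compound sprayed on potted 2-leaf cucumber; P. cubensis zoospores spray-inoculated one day later. Plants kept 1 day in humid room at 25° C, then 6 days in greenhouse. Control computed from per-leaf infection relative to untreated plot.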

The test system of experiment [2] is Candida albicans IFO 1270. Nature of the experiment: In vitro antimycotic activity on Candida albicans. The format is cell-based. The settings on record: IFO1270, 10 (ppm), SGB, 37° C., 48 hours, turbidity at 650 nm, read-out: Antimycotic activity (growth inhibitory rate), C.albicans. The procedure:
3-1 In vitro antimycotic activity on Candida albicans
Candida albicans IFO 1270 pre-cultured on a Sabouraud's glucose agar (SGA) plate medium at 37° C. […] was suspended in a sterilized physiological salt solution. The number of fungi in the resulting suspension was counted with a globulimeter, and adjusted so as to be 1×10^7 cell/ml with a sterilized physiological salt solution. This solution was used as an inoculum solution. Thereafter, 0.1 ml of this solution and 0.1 ml of a dimethyl sulfoxide (DMSO) solution of the test compound were added to 9.8 ml of Sabouraud's glucose broth (SGB), and shake-cultured at 37° C. for 48 hours. After culture, the medium turbidity was measured at 650 nm, and the growth-inhibitory rate of the fungus was calculated according to the following equation.
Growth inhibitory rate (%)=(1-W/Y)×100
Y: Medium turbidity of DMSO control group
W: Medium turbidity of test compound group
From this inhibitory rate, the antimycotic activity was shown by the symbols A to D. The test results of the test compounds are shown in Table 4.

The test system of experiment [3] is Gibberella fujikuroi ("Bakanae" disease of rice). Nature of the experiment: Test for rice seed-disinfecting effect. The settings on record: Fusarium fujikuroi, 504 h, seed immersion 25° C. 24 hours, three weeks after treatment, read-out: Controlling effect (control of disease), "Bakanae" disease of rice. The format is in vivo. Summed up:
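Bakanae-infected unhulled rice seed soaked 24 hours at 25° C in 1000 ppm compound, then sown and germinated two days. Infected-seedling rate scored three weeks after treatment; control calculated against untreated plot and graded on a standard scale.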

Experiment [4] relates to Aspergillus fumigatus TIMM 0063. The experiment can be described thus: In vitro antimycotic activity on Aspergillus fumigatus. The experiment is classed as cell-based. The settings on record: TIMM0063, 10 (ppm), Casitone agar, 37° C., 48 hours, read-out: Antimycotic activity (growth inhibitory rate), A.fumigatus. The procedure: 3-2 In vitro antimycotic activity on Aspergillus fumigatus.
To Aspergillus fumigatus TIMM 0063 precultured at 37° C. for 48 hours on a potato dextrose agar (PDA) slant medium was added a sterilized physiological salt solution containing 0.1%(W/V) Tween 80. After conidia were made free from the solution, the solution was filtered through a sterilized two-sheet gauze to remove the mycelium mass. The number of the conidia in the resulting suspension was counted with a globulimeter and adjusted so as to be 1×10^5 conidia/ml with a sterilized physiological salt solution containing 0.1%(W/V) Tween 80. This solution was used as an inoculum solution. Casitone agar plate medium containing the DMSO solution of the test compound in a rate of 1% (V/V) was inoculated with the inoculum solution at four places thereof with a microplanter, and cultured with the medium allowed to stand at 37° C. for 48 hours. After culture, the diameter of the mycelium disks cultivated at the four inoculated parts was measured, and its mean value was obtained. The growth inhibitory rate was calculated according to the following equation, and the antimycotic activity was shown in the same manner as in Test Example 3-1.
Growth inhibitory rate (%)=(1-W'/Y')×100
Y': Diameter of mycelium disk of DMSO control group
W': Diameter of mycelium disk of test compound group

Experiment [5] has as its system Rhizoctonia solani. Nature of the experiment: Test for controlling effect on sheath blight of rice. The experiment is classed as in vivo. The note with it: 120 h, 200 ppm spray, 24 hours after inoculation, rice 4-leaf stage, five days after inoculation, read-out: Controlling effect (control of disease), Sheath blight of rice. The essentials: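 Rice seedlings at the 4-leaf stage were inoculated with mycelium, then sprayed 24 h later with compound at 200 ppm. After air-drying, plants were held 24 h at 28 °C and 98% humidity, then moved to a greenhouse. Infected area was scored 5 days post-inoculation; control was calculated relative to untreated plants.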

Experiment [6] has as its system Trichophyton mentagrophytes IFO 5810. Nature of the experiment: In vitro antimicrobial activity on Trichophyton mentagrophytes. The experiment is classed as cell-based. Details: key: A: Fungus is not observed at all with the naked eye.; B: Presence of fungus is slightly observed on shaking the test tube.; C: Fungus of about less than one-fourth that of the DMSO control group is observed with the naked eye.; Fungus of about less than half that of the DMSO control group is observed with the naked eye. The settings on record: 10 (ppm); SGB, 27° C., 7 days. The procedure:
3-3 In vitro antimicrobial activity on Trichophyton mentagrophytes To Trichophyton mentagrophytes IFO 5810 precultured at 27° C. for 2 to 3 weeks on a Sabouraud's glucose agar (SGA) slant medium was added a sterilized physiological salt solution containing 0.1% (W/V) Tween 80. After conidia were made free from the solution, the solution was filtered through a sterilized two-sheet gauze to remove the mycelium mass. The number of the conidia in the resulting suspension was counted with a globulimeter and adjusted so as to be 1×10^6 conidia/ml with a sterilized physiological salt solution containing 0.1%(W/V) Tween 80. This solution was used as an inoculum solution. Thereafter, 0.1 ml of this solution and 0.1 ml of the dimethyl sulfoxide (DMSO) solution of the test compound were added to 9.8 ml of Sabouraud's glucose broth (SGB), and shake-cultured at 27° C. for 7 days.

Experiment [7] has as its system Aspergillus niger. The experiment can be described thus: Test for wood rotting-preventing effect (mycelium growth inhibition on malt extract agar). The format is cell-based. The note with it: 28° C.±2° C., 2 to 10 days, read-out: Rotting preventing effect (mycelium growth-inhibitory rate), ASN. The essentials:
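Mycelial agar disks (4 mm) placed on malt extract agar containing 50 ppm test compound, incubated at 28° C.±2° C. Colony diameter measured 2–10 days after inoculation; growth-inhibitory rate (%) reported as symbol-coded score.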

Experiment [8] deals with Tyromyces palustris. The experiment is described as above. The format is cell-based. The note with it: 28° C.±2° C., 2 to 10 days, read-out: Rotting preventing effect (mycelium growth-inhibitory rate), TYP. Summed up:
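Mycelial agar disks (4 mm) were placed on malt extract agar containing test compound at 50 ppm and grown at 28° C.±2° C. Colony diameter was measured 2-10 days after inoculation and converted to percent mycelium growth inhibition, reported as symbol grades.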

Experiment [9] has as its system Rhizopus nigricans. The experiment is described as above. The experiment is classed as cell-based. The settings on record: Rhizopus stolonifer, 28° C.±2° C., 2 to 10 days, read-out: Rotting preventing effect (mycelium growth-inhibitory rate), RHN. The essentials:
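Mycelial agar disks (4 mm) placed on malt extract agar containing 50 ppm test compound and grown at 28 °C ± 2 °C. Colony diameter measured 2-10 days after inoculation; mycelium growth-inhibitory rate (%) reported as a symbol score.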

Experiment [10] relates to Trichoderma viride. The experiment is described as above. The experiment is classed as cell-based. The note with it: 28° C.±2° C., 2 to 10 days, read-out: Rotting preventing effect (mycelium growth-inhibitory rate), TRV. The essentials:
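Mycelial agar disks (4 mm) placed on malt extract agar containing 50 ppm test compound and cultured at 28 °C ± 2 °C. Colony diameter measured 2–10 days after inoculation; growth-inhibitory rate (%) reported as symbol grades.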

Consider `N#CCOc1nsc(SCOCC#CI)c1C#N` [Compound 63], for which the results for the pest or weed control at 200 ppm in experiment [1] and in experiment [5] were 95 to 100% and 80 to 94%, respectively. The inhibition of growth at 10 µg/mL in [2] and in experiment [4] was 100% each time. In addition, the pest or weed control at 1000 ppm in experiment [3] lay in the range of 95 to 100%. Further, the “Antimycotic activity (degree of growth, naked eye), T.mentagrophytes” value (“Antimycotic activity” for short) in experiment [6] was “A”.

Take `CC(C)Sc1snc(OCC#CI)c1C#N` [Compound 4]: the pest or weed control at 200 ppm in [1] fell in the range of 95 to 100%; in [5], 80 to 94%. Besides, the inhibition of growth at 10 µg/mL in experiment [2] and in experiment [4] was 100% each time. In [3], the pest or weed control at 1000 ppm lay in the range of 95 to 100%. Further, the “Antimycotic activity” value in experiment [6] is “A”.

For `CCOc1snc(OCC#CI)c1C#N` [Compound 22], the inhibition at 50 ppm in [7], in experiment [8], in experiment [9] and in experiment [10] was 95 to 100% throughout. In addition, the inhibition of growth at 10 µg/mL in experiment [2] and in experiment [4] was 100% throughout. In addition, the “Antimycotic activity” value in experiment [6] was “A”.

Take `N#Cc1c(SC(F)F)nsc1SCOCC#CI` [Compound 138]: the inhibition at 50 ppm in [7], in [8], in experiment [9] and in [10] was 95 to 100% each time. Besides, the inhibition of growth at 10 µg/mL in [2] and in [4] was 100% each time. Besides, the “Antimycotic activity” value in [6] is reported as “A”.

Take `N#Cc1c(OC(F)F)nsc1OCC#CI` [Compound 50]: the pest or weed control at 200 ppm in [1] and in experiment [5] was 95 to 100% throughout. Further, the inhibition of growth at 10 µg/mL in [2] and in experiment [4] was 100% in each case. Besides, the pest or weed control at 1000 ppm in [3] is 95 to 100%. In addition, the “Antimycotic activity” value in experiment [6] was “A”.

As for `CN1CCN(c2snc(OCC#CI)c2C#N)CC1` [Compound 36], the inhibition at 50 ppm in experiment [7] fell in the range of 80 to 94%; in experiment [8], 95 to 100%; in experiment [9] it was 80 to 94%; in experiment [10], 95 to 100%. In addition, the inhibition of growth at 10 µg/mL in experiment [2] and in experiment [4] was 100% each time. The “Antimycotic activity” value in experiment [6] is listed as “A”.

Turning to `CSc1snc(SCOCC#CI)c1C#N` [Compound 128, 3-(3-iodo-2-propynyloxymethylthio)-4-cyano-5-methylthioisothiazole], the pest or weed control at 200 ppm was in the range of 95 to 100% in [1] and 60 to 79% in [5]. Moreover, the inhibition of growth at 10 µg/mL in [2] and in [4] was 100% throughout. In experiment [3], the pest or weed control at 1000 ppm lay in the range of 80 to 94%. In [6], the “Antimycotic activity” value is reported as “A”.

Consider `C=CCOc1nsc(SCOCC#CI)c1C#N` [Compound 57], for which the inhibition at 50 ppm in experiment [7], in experiment [8], in [9] and in experiment [10] was 95 to 100% in each case. Also, the inhibition of growth at 10 µg/mL in [2] and in [4] was 100% throughout. Besides, the “Antimycotic activity” value in [6] is reported as “A”.

Consider `COc1nsc(SC(C)OCC#CI)c1C#N` (stereo not shown) [Compound 125], for which the pest or weed control at 200 ppm in experiment [1] and in experiment [5] was 95 to 100% in each case. Moreover, the inhibition of growth at 10 µg/mL in experiment [2] and in [4] was 100% throughout. The pest or weed control at 1000 ppm in experiment [3] lay within 95 to 100%. The “Antimycotic activity” value in experiment [6] is recorded as “A”.
